In assay [1] the test system is ZIKV NS5 and E. The class given is cell-based. Conditions: added at 24 h, analyzed at 36 hpi; compared to CHX or Puro.
The subject of assay [2] is ZIKV. The experiment in a line: Quantification of (+)vRNA and viral particles by qPCR and plaque assays, ZIKV-infected cells. The class given is cell-based. Conditions: added at 24 h, analyzed at 36 hpi. On the technique in general: Real-time PCR tracks product formation cycle by cycle.
Assay [3] deals with ZIKV RNA translation initiation. The experiment in a line: Sucrose gradient polysome fractionation with qPCR of GAPDH mRNA and ZIKV plus-strand RNA. As to conditions: then 30 nM RocA for 30 min. Type of assay: cell-based.
Assay [4] has as its system ZIKV replication complexes. The experiment in a line: In vitro replication assay with crude replication complexes and clickable uridine analog (5EU). Type of assay: biochemical. Conditions: crude replication complexes from ZIKV-infected cells.
Assay [5] relates to DENV. Type of assay: cell-based, DENV-2 strain 16681.
For assay [6], the system named is PV. Type of assay: cell-based, PV-1 Mahoney.
The test system of assay [7] is ZIKV. The class given is cell-based, ZIKV PRVABC59.
Assay [8] deals with ebola, chikungunya, influenza and ZIKV. As to conditions: cited from earlier work.

“Also recorded” adds a separate entry of the source. Where two headings read alike, the source gives them in different places.

`COc1ccc([C@@]23Oc4cc(OC)cc(OC)c4[C@]2(O)[C@H](O)[C@H](C(=O)N(C)C)[C@H]3c2ccccc2)cc1` [RocA, Rocaglamide A]: in assay [1], the “accumulation of NS5 or E” value is reported as “mild inhibitory effect”. Also, the “accumulation of viral RNA or particles” value in assay [2] is “reduced viral replication”. In assay [3] (ZIKV-infected cells 24 h), the “distribution of ZIKV plus-strand RNA in gradient fractions” value was “shift of ZIKV RNA to lighter fractions”. Moreover, the “distribution of GAPDH mRNA in gradient fractions” value in assay [3] (mock or ZIKV-infected cells 24 h) is listed as “did not affect”. For the same molecule, the “ZIKV replication in vitro (5EU labelling of newly synthesized RNA)” value in assay [4] was “reduced”. Also, the “virus production (DENV)” value in assay [5] is “strongly reduced; also recorded: blocks viral replication; also recorded: drastic dose-dependent decrease”. In assay [6], the “virus production (PV)” value is reported as “only minor effects; also recorded: not PV”. For the same molecule, the “virus production (ZIKV)” value in assay [7] is “strongly reduced; also recorded: blocks viral replication; also recorded: drastic dose-dependent decrease”.

In the case of `C[C@@]1(O)[C@H](O)[C@@H](CO)O[C@H]1n1cnc2c(N)ncnc21` [2′CMA], the “ZIKV replication in vitro (5EU labelling of newly synthesized RNA)” value in assay [4] is listed as “reduced”.

Take `COC(=O)[C@H]1[C@@H](O)[C@@]2(O)c3c(OC)cc(O[C@@H]4O[C@@H]([C@H](O)CO)CO[C@H]4OC)cc3O[C@@]2(c2ccc(OC)cc2)[C@@H]1c1ccccc1` [silvestrol]: the antiviral activity entry in assay [8] (against ebola, chikungunya, influenza and ZIKV, literature references) is on record as “antiviral activity”.

With `CCOC(=O)c1ccc(-c2ncc(C(=O)OCC)s2)nc1` [PythiDC, Diethyl-pythiDC], the “virus production (DENV)” value in assay [5] was “inhibit virus replication”. In assay [7], the “virus production (ZIKV)” value is listed as “inhibit virus replication”.

In the case of `C[C@@H]1C[C@@H]([C@H](O)CC2CC(=O)NC(=O)C2)C(=O)[C@@H](C)C1` [CHX, cycloheximide], the “accumulation of viral RNA or particles” value in assay [2] is recorded as “reduced viral replication”.

For the molecule `CC(/C=C/C(C)=C/[C@@H]1Cc2nc(cs2)[C@@H](C)C[C@@H](N)CC(=O)O[C@@H](C)C/C(C)=C/C=C\C(=O)O1)=C\CN(C)C` [pateamine A], in assay [8], the antiviral activity entry was “antiviral activity”.

(Values after patent publication US20230201245A1, “COMPOSITIONS AND METHODS FOR TREATING VIRUS INFECTION” (CZ BIOHUB SF, LLC, priority 2020, published 2023).)
